Read-outs that look alike come from different tables or passages of the source.
Key:
[1] = system: PDAC3 primary cell culture; assay: Growth inhibition, SRB assay, PDAC3; assay type: cell-based, human; conditions: Homo sapiens, PDAC-3; PDAC3, 72 h, SRB; read-out: IC50 antiproliferative activity
PDAC3 cells [2] = assay: Apoptosis assay, Annexin-V staining, PDAC3; assay type: cell-based, human; conditions: PDAC3, drug at IC50, 72 h, compared to untreated cells
PDAC3 cells [3] = assay: Wound-healing/migration assay, PDAC3; assay type: cell-based, human; conditions: PDAC3, 20 h, drug at 5× IC50; control 59 ± 8%
Bcl-2 = assay: qRT-PCR gene expression, Bcl-2; assay type: cell-based; conditions: 5× IC50, 24 h, compared to untreated cells
Protocol: To elucidate the previous data on apoptosis and migration and the mechanism of interaction, further studies focused on several potential cellular determinants and effectors of drug activities, such as the anti-apoptotic factor Bcl-2, the key matrix metalloproteinase 9 (MMP9), which promotes cell migration, and the main gemcitabine transporter, the human equilibrative nucleoside transporter 1 (hENT1).
Real-time quantitative reverse transcription PCR (qRT-PCR) was performed to evaluate the gene expression of MMP9, BCL-2, BCL-x, and hENT1, using β-actin, and GAPDH as housekeeping genes. […] Total RNA was extracted using the TRIzol Reagent (15596–026, ThermoFisher Scientific, Waltham, MA) according to the manufacturer’s protocol. One microgram of RNA was reverse transcribed using first-strand cDNA synthesis (First Strand cDNA Synthesis Kit; ThermoFisher #K1612) on a Bio-Rad machine C100 Thermal Cycler. Real-time qPCR quantification was performed using specific TaqMan detection probes and primers (TaqMan Universal PCR Master Mix #4304437; Thermo Fisher Scientific, USA) with the ABIPRISM-7500 instrument (Applied Biosystems, Foster City, CA), as described previously.[60] Data obtained were analyzed according to the 2^–ΔΔCt method.

Water solubility = assay type: physicochemical; conditions: distilled water, room temperature
Protocol: 6.9 software. Chromatographic separation was obtained using a Kinetex C18 column (150 × 4.6 mm) with a 5 μm particle size and gradient elution with a binary solution; (eluent A: ACN, eluent B: water, both eluents were acidified with formic acid 0.1% v/v). The analysis started with 5% of A (from t = 0 to t = 1 min), then A was increased to 95% (from t = 1 to t = 10 min), then kept at 95% (from t = 10 to t = 19 min), and finally returned to 5% of eluent A in 1.0 min. The flow rate was 0.6 mL/min, and injection volumes were 10 μL. The instrument operated in positive mode, and parameters were detector 1450 V, drying gas pressure 35.0 psi, desolvation temperature 300.0 °C, nebulizing gas 45.0 psi, needle 5550 V and shield 350 V. Nitrogen was used as a nebulizer gas and drying gas. Collision-induced dissociation was performed using argon as the collision gas at a pressure of 1.8 mTorr in the collision cell. The transitions as well as the capillary voltage and the collision energy used are appropriated for each tested compound. Quantification of the single compound was made by comparison with appropriate calibration curves realized with standard solutions in methanol. LC analyses of PAMPA, metabolic stability, and stability tests (in MeOH, PBS, human plasma) were performed by UV/LC–MS with an Agilent 1100 LC/MSD VL system ((G1946C) Agilent Technologies, Palo Alto, CA) using a Phenomenex Kinetex C18–100 Å (150 × 4.6 mm, 5 μm particle size) at room temperature. Analyses were carried out with the same chromatographic conditions reported above.
Each sample was mixed at room temperature in a shaker water bath for 24 h.[62] The resulting suspension was filtered through a 0.45 μm nylon filter (Acrodisc), and the solubilized compound was quantified in triplicate using the LC–MS/MS method reported above, by comparison with the appropriate calibration curve that was obtained from samples of the compound dissolved in methanol at different concentrations.

[4] = Stability test in polar solvents; assay type: physicochemical
Protocol: Each compound was dissolved at RT in MeOH or PBS (25 mM, pH 7.4) up to a final concentration of 500 μM. Aliquot samples (20 μL) were taken at fixed time points (0.0, 4.0, 8.0, and 24.0 h) and were analyzed by UV/LC–MS. For each compound, the determination was performed in three independent experiments.

ABHD6 = ABHD6 (Mus musculus, UniProt Q8R2Y0)
ABHD6, sequence (Q8R2Y0 whole entry): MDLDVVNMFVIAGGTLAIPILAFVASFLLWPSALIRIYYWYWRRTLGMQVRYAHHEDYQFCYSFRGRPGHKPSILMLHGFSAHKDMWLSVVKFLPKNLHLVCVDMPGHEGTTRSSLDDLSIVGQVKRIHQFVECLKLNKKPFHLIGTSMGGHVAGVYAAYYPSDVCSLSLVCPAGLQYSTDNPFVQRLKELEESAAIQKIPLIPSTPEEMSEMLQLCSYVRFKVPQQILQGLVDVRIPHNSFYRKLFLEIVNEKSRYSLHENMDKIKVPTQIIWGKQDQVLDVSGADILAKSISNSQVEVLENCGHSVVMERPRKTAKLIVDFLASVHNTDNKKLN

SMILES: O=C(c1cc(O)ccc1F)N1CCC(Cc2cccc(Oc3cc(C(F)(F)F)ccn3)c2)CC1 [Compound 13, (2-Fluoro-5-hydroxyphenyl)(4-(3-((4-(trifluoromethyl)pyridin-2-yl)oxy)benzyl)piperidin-1-yl)methanone]
- IC50 [1]: 7.25 µM
- induction of apoptosis (PDAC3 cells [2]): strongly enhanced apoptosis induction
- scratch area closed (PDAC3 cells [3]): 38 ± 6%
- Bcl-2 gene expression (Bcl-2): slight reduction
- solubility at 24 h (Water solubility; read-out: water solubility): < 1 ng/mL
- solubility at 24 h (Water solubility; read-out: water solubility (logS)): < 2.11 nM
- stability MeOH ([4]; MeOH, RT): >24 h
- stability PBS pH 7.4 ([4]; PBS pH 7.4, RT): >24 h
- TAMRA-FP labelling of ABHD6 band (ABPP) (ABHD6): without affecting
